Where “and” joins values, the source holds several entries; their conditions need not be identical. Equal values may be shown once. Toxic doses and inconclusive results are not listed.
Tested on: BDF1 mice, L1210 leukemia sc, survival T/C
Test: NCI In Vivo Anticancer Drug Screen. Data for tumor model L1210 Leukemia (subcutaneous) in B6D2F1 (BDF1) mice
Details: higher = longer survival
Method: The antitumor activity of compounds was measured in mice bearing transplantable tumors. Survival or tumor size were measured and the results are expressed as the measurement made in the treated group (T) divided by the measurement made in the vehicle treated control group (C). The tumor model used in this assay is L1210 Leukemia (subcutaneous) in B6D2F1 (BDF1) mice

[1] = endpoint: median survival time, dose: 65.0 mg/kg/injection, schedule: Q01DX Z (sc), vehicle: methylcellulose (MC)
[2] = endpoint: median survival time, dose: 108.0 mg/kg/injection, schedule: Q01DX Z (sc), vehicle: methylcellulose (MC)
[3] = endpoint: median survival time, dose: 130.0 mg/kg/injection, schedule: Q01DX Z (sc), vehicle: methylcellulose (MC)
[4] = endpoint: median survival time, dose: 180.0 mg/kg/injection, schedule: Q01DX Z (sc), vehicle: methylcellulose (MC)
[5] = endpoint: median survival time, dose: 300.0 mg/kg/injection, schedule: Q01DX Z (sc), vehicle: methylcellulose (MC)
[6] = endpoint: median survival time, dose: 39.0 mg/kg/injection, schedule: Q01DX Z (sc), vehicle: methylcellulose (MC)
[7] = endpoint: median survival time, dose: 23.0 mg/kg/injection, schedule: Q01DX Z (sc), vehicle: methylcellulose (MC)
[8] = endpoint: median survival time, dose: 5.0 mg/kg/injection, schedule: Q01DX Z (sc), vehicle: methylcellulose (MC)
[9] = endpoint: median survival time, dose: 14.0 mg/kg/injection, schedule: Q01DX Z (sc), vehicle: methylcellulose (MC)
[10] = endpoint: median survival time, dose: 39.0 mg/kg/injection, schedule: Q01DX Z (sc), vehicle: saline
[11] = endpoint: median survival time, dose: 65.0 mg/kg/injection, schedule: Q01DX Z (sc), vehicle: saline
[12] = endpoint: median survival time, dose: 108.0 mg/kg/injection, schedule: Q01DX Z (sc), vehicle: saline
[13] = endpoint: median survival time, dose: 180.0 mg/kg/injection, schedule: Q01DX Z (sc), vehicle: saline
[14] = endpoint: median survival time, dose: 300.0 mg/kg/injection, schedule: Q01DX Z (sc), vehicle: saline
[15] = endpoint: median survival time, dose: 500.0 mg/kg/injection, schedule: Q01DX Z (sc), vehicle: saline

Compound: CCOC(=O)NP(=O)(N1CC1(C)C)N1CC1(C)C (stereo not given)
- T/C [1]: 91 % of control
- T/C [2]: 100 % of control
- T/C [3]: 95 % of control
- T/C [4]: 100 % of control
- T/C (endpoint: median survival time, dose: 216.0 mg/kg/injection, schedule: Q01DX Z (sc), vehicle: methylcellulose (MC)): 100 % of control
- T/C [5]: 100 % of control
- T/C (endpoint: median survival time, dose: 500.0 mg/kg/injection, schedule: Q01DX Z (sc), vehicle: methylcellulose (MC)): 100 % of control

Compound: CCS(=O)(=O)Nc1cccc(Nc2c3cccc(C)c3nc3c(C)cccc23)c1OC
- T/C (endpoint: mean survival time, dose: 12.5 mg/kg/injection, schedule: Q01DX009 (sc), vehicle: Klucel (hydroxypropylcellulose) (HPC)): 105 % of control
- T/C (endpoint: mean survival time, dose: 25.0 mg/kg/injection, schedule: Q01DX009 (sc), vehicle: Klucel (hydroxypropylcellulose) (HPC)): 100 % of control
- T/C (endpoint: mean survival time, dose: 50.0 mg/kg/injection, schedule: Q01DX009 (sc), vehicle: Klucel (hydroxypropylcellulose) (HPC)): 104 % of control
- T/C (endpoint: mean survival time, dose: 100.0 mg/kg/injection, schedule: Q01DX009 (sc), vehicle: Klucel (hydroxypropylcellulose) (HPC)): 112 % of control

Compound: COc1ccc2nc3cc(Cl)ccc3c(NCCN(CCCl)CCCl)c2c1
- T/C (endpoint: median survival time, dose: 0.65 mg/kg/injection, schedule: Q01DX Z (sc), vehicle: methylcellulose (MC)): 105 % of control
- T/C [6]: 100 % of control

Compound: Nc1ccc(S(=O)(=O)Nc2ccc(Nc3c4ccccc4nc4ccccc34)cc2)cc1
- T/C (endpoint: median survival time, dose: 1.5 mg/kg/injection, schedule: Q01DX009 (ip), vehicle: saline with Tween-80): 100 % of control
- T/C (endpoint: median survival time, dose: 3.0 mg/kg/injection, schedule: Q01DX009 (ip), vehicle: saline with Tween-80): 112 % of control
- T/C (endpoint: median survival time, dose: 6.0 mg/kg/injection, schedule: Q01DX009 (ip), vehicle: saline with Tween-80): 112 % of control
- T/C (endpoint: median survival time, dose: 12.0 mg/kg/injection, schedule: Q01DX009 (ip), vehicle: saline with Tween-80): 112 % of control

Compound: S=P(N1CC1)(N1CC1)N1CC1
- T/C (endpoint: median survival time, dose: 1.08 mg/kg/injection, schedule: Q01DX Z (sc), vehicle: saline): 110 % of control
- T/C (endpoint: median survival time, dose: 1.5 mg/kg/injection, schedule: Q01DX009 (ip), vehicle: water): 113 % of control
- T/C (endpoint: median survival time, dose: 1.5 mg/kg/injection, schedule: Q01DX009 (sc), vehicle: water): 105 % of control
- T/C (endpoint: median survival time, dose: 1.8 mg/kg/injection, schedule: Q01DX Z (sc), vehicle: saline): 100 % of control and 110 % of control
- T/C (endpoint: median survival time, dose: 3.0 mg/kg/injection, schedule: Q01DX Z (sc), vehicle: saline): 112 % of control
- T/C (endpoint: median survival time, dose: 5.0 mg/kg/injection, schedule: Q01DX Z (sc), vehicle: saline): 156 % of control
- T/C (endpoint: median survival time, dose: 6.0 mg/kg/injection, schedule: Q01DX009 (ip), vehicle: water): 94 % of control
- T/C (endpoint: median survival time, dose: 6.0 mg/kg/injection, schedule: Q01DX009 (sc), vehicle: water): 169 % of control
- T/C (endpoint: median survival time, dose: 8.4 mg/kg/injection, schedule: Q01DX Z (sc), vehicle: saline): 170 % of control
- T/C (endpoint: median survival time, dose: 12.0 mg/kg/injection, schedule: Q01DX009 (sc), vehicle: water): 86 % of control
- T/C (endpoint: median survival time, dose: 14.0 mg/kg/injection, schedule: Q01DX Z (sc), vehicle: saline): 120 % of control
- T/C (endpoint: median survival time, dose: 23.0 mg/kg/injection, schedule: Q01DX Z (sc), vehicle: saline): 104 % of control and 120 % of control

Compound: CS(=O)(=O)OCCCCOS(C)(=O)=O
- T/C (endpoint: median survival time, dose: 6.25 mg/kg/injection, schedule: Q01DX009 (ip), vehicle: Klucel (hydroxypropylcellulose) (HPC)): 93 % of control
- T/C (endpoint: median survival time, dose: 6.25 mg/kg/injection, schedule: Q01DX009 (sc), vehicle: Klucel (hydroxypropylcellulose) (HPC)): 97 % of control
- T/C (endpoint: median survival time, dose: 12.5 mg/kg/injection, schedule: Q01DX009 (ip), vehicle: Klucel (hydroxypropylcellulose) (HPC)): 103 % of control
- T/C (endpoint: median survival time, dose: 12.5 mg/kg/injection, schedule: Q01DX009 (sc), vehicle: Klucel (hydroxypropylcellulose) (HPC)): 96 % of control
- T/C [7]: 103 % of control
- T/C (endpoint: median survival time, dose: 25.0 mg/kg/injection, schedule: Q01DX009 (ip), vehicle: Klucel (hydroxypropylcellulose) (HPC)): 106 % of control
- T/C (endpoint: median survival time, dose: 25.0 mg/kg/injection, schedule: Q01DX009 (sc), vehicle: Klucel (hydroxypropylcellulose) (HPC)): 105 % of control
- T/C (endpoint: median survival time, dose: 47.0 mg/kg/injection, schedule: Q01DX Z (sc), vehicle: methylcellulose (MC)): 105 % of control
- T/C (endpoint: median survival time, dose: 50.0 mg/kg/injection, schedule: Q01DX009 (ip), vehicle: Klucel (hydroxypropylcellulose) (HPC)): 101 % of control
- T/C (endpoint: median survival time, dose: 50.0 mg/kg/injection, schedule: Q01DX009 (sc), vehicle: Klucel (hydroxypropylcellulose) (HPC)): 96 % of control
- T/C [1]: 96 % of control
- T/C (endpoint: median survival time, dose: 78.0 mg/kg/injection, schedule: Q01DX Z (sc), vehicle: methylcellulose (MC)): 110 % of control
- T/C [2]: 96 % of control
- T/C [3]: 100 % of control
- T/C [4]: 103 % of control
- T/C [5]: 100 % of control

Compound: C1OC1CN1CCC(C2CCN(CC3CO3)CC2)CC1 (stereo not given)
- T/C [8]: 109 % of control
- T/C [9]: 109 % of control
- T/C [7]: 104 % of control
- T/C (endpoint: median survival time, dose: 65.0 mg/kg/injection, schedule: Q03DX Z (sc), vehicle: methylcellulose (MC)): 109 % of control
- T/C [2]: 118 % of control
- T/C (endpoint: median survival time, dose: 180.0 mg/kg/injection, schedule: Q03DX Z (sc), vehicle: methylcellulose (MC)): 118 % of control

Compound: CN(N=O)C(=O)NC(C=O)C(O)C(O)C(O)CO (stereo not given)
- T/C [10]: 100 % of control
- T/C [11]: 112 % of control
- T/C [12]: 100 % of control
- T/C [13]: 112 % of control
- T/C [14]: 112 % of control
- T/C [15]: 100 % of control

Compound: CC(=O)Nc1ccc2nc3ccc(NC(C)=O)cc3[n+](-c3ccccc3)c2c1
- T/C [7]: 105 % of control
- T/C [1]: 105 % of control

Compound: CC(C)NNC(=O)c1ccncc1
- T/C (endpoint: median survival time, dose: 200.0 mg/kg/injection, schedule: Q01DX001 (sc), vehicle: saline): 105 % of control and 106 % of control
- T/C (endpoint: median survival time, dose: 400.0 mg/kg/injection, schedule: Q01DX001 (sc), vehicle: saline): 100 % of control and 103 % of control

Compound: O=C(Nc1ccc(C(=O)Nc2ccc(C3=NCCN3)cc2)cc1)Nc1ccc(C2=NCCN2)cc1
- T/C [6]: 95 % of control
- T/C [1]: 95 % of control
- T/C [2]: 100 % of control
- T/C [4]: 110 % of control

Compound: CN(C)c1nc(N(C)C)nc(N(C)C)n1
- T/C [10]: 100 % of control
- T/C [11]: 100 % of control
- T/C [12]: 100 % of control
- T/C [13]: 100 % of control
- T/C [14]: 95 % of control and 105 % of control
- T/C [15]: 95 % of control
- T/C (endpoint: median survival time, dose: 833.0 mg/kg/injection, schedule: Q01DX Z (sc), vehicle: saline): 110 % of control
- T/C (endpoint: median survival time, dose: 1388.0 mg/kg/injection, schedule: Q01DX Z (sc), vehicle: saline): 100 % of control

Compound: Cn1c(O)c(N=NC(N)=S)c2ccccc21
- T/C [8]: 100 % of control
- T/C (endpoint: median survival time, dose: 8.4 mg/kg/injection, schedule: Q01DX Z (sc), vehicle: methylcellulose (MC)): 100 % of control
- T/C [9]: 100 % of control
- T/C [7]: 100 % of control
- T/C [6]: 100 % of control
- T/C [1]: 100 % of control
- T/C [2]: 100 % of control
- T/C [4]: 100 % of control

Compound: Cc1cccc2c(Nc3ccc(NS(C)(=O)=O)cc3)c3ccc([N+](=O)[O-])cc3nc12
- T/C (endpoint: mean survival time, dose: 10.0 mg/kg/injection, schedule: Q01DX009 (ip), vehicle: saline): 158 % of control

Compound: Nc1nc(N)c2nc(CNc3ccc(C(=O)NC(CCC(=O)O)C(=O)O)cc3)cnc2n1 (stereo not given)
- T/C (endpoint: median survival time, dose: 0.04 mg/kg/injection, schedule: Q01DX Z (sc), vehicle: other): 100 % of control
- T/C (endpoint: median survival time, dose: 0.05 mg/kg/injection, schedule: Q01DX Z (sc), vehicle: other): 100 % of control
- T/C (endpoint: median survival time, dose: 0.08 mg/kg/injection, schedule: Q01DX Z (sc), vehicle: other): 100 % of control
- T/C (endpoint: median survival time, dose: 0.4 mg/kg/injection, schedule: Q01DX Z (sc), vehicle: other): 120 % of control
- T/C (endpoint: median survival time, dose: 0.6 mg/kg/injection, schedule: Q01DX Z (sc), vehicle: other): 120 % of control
- T/C (endpoint: median survival time, dose: 0.89 mg/kg/injection, schedule: Q01DX Z (sc), vehicle: other): 120 % of control
- T/C (endpoint: median survival time, dose: 1.33 mg/kg/injection, schedule: Q01DX Z (sc), vehicle: other): 110 % of control
- T/C (endpoint: median survival time, dose: 2.0 mg/kg/injection, schedule: Q01DX Z (sc), vehicle: other): 120 % of control
